Laboratory results: patent US9101609B2, “CD37 immunotherapeutic and combination with bifunctional chemotherapeutic thereof” (EMERGENT PRODUCT DEVELOPMENT SEATTLE, LLC, priority 2008, dated 2015)
Entries after “also recorded” stand apart in the source; their conditions may differ. Marks after values point to notes of the source that are not given here.

Key:
[1] = tested on: DOHH2 human tumor xenograft; assay: CAS024 combined with bendamustine in subcutaneous DOHH2 xenografts in SCID mice; type: in vivo; settings: CAS024 10 μg IV days 0, 4, 8; Bendamustine 10 mg/kg IP days 0, 2, 4, 7, 9
Procedure: Establishment of tumor xenografts and sorting into treatment groups.
Monitoring and endpoints. Mice were monitored daily by visual inspection. […] Tumor volumes were calculated as described above.

CD37 [2] = target: T1, CD37 (Homo sapiens, UniProt P11049); assay: FACS competitive binding / cross blocking of FITC-conjugated anti-CD37 on BJAB cells; settings: FIGS. 5A-5E
T1 sequence (P11049 1-281): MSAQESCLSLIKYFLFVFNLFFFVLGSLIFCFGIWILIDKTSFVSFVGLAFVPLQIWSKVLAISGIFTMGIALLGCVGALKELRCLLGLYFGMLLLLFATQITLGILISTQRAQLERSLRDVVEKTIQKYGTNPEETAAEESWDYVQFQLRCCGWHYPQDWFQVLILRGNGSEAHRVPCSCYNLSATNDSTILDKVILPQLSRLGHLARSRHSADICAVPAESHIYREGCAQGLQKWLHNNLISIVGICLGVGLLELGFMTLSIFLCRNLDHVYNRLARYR
Procedure: FITC labeled antibody conjugates were titrated from 10 ng/mL to 10 μg/mL in an initial binding study to determine the optimal amount to use in the blocking studies. The level chosen was just below saturating amounts, and was kept constant in the subsequent assays, while levels of blocking antibody were increased over a 10-fold range. Data were plotted as percent of maximal binding versus concentration of blocking antibody, so that higher levels indicate less efficient blocking, while lower levels indicate more efficient blocking activity.
For competitive binding assays, 2.5×10^5 BJAB cells were incubated in 96-well V-bottom plates in staining media (PBS with 2% mouse sera) with the FITC-conjugated anti-CD37 mAbs at 1.25 μg/mL in the presence of unconjugated anti-CD37 MAb at the indicated concentrations (2.5, 1.25, 0.6, or 0.3 μg/ml) or staining media for 45 minutes on ice in the dark. Blocking antibodies and FITC labeled antibody conjugates were added to reactions prior to addition of cells. The cells were then washed […] with PBS and fixed with 1% paraformaldehyde (USB, Cleveland, Ohio). The treated cells were analyzed by flow cytometry using a FACsCalibur instrument and CellQuest software (BD Biosciences, San Jose, Calif.). […]

[3] = tested on: chronic lymphocytic leukemia (CLL) cells; settings: in vitro; cited from earlier work
[4] = tested on: DOHH2 human tumor xenograft; assay: CAS-024 and Rituxan as single agents in established DOHH2 xenograft model in SCID mice; type: in vivo; settings: for Death (other than for Tumor Size Sacrifice) / Median Survival Time: 200 μg IP days 0, 4, 8; for Median Survival Time: cumulative 600 μg; for mean tumor volume compared with human IgG treated group: 200 μg IP, day 4 through day 11
Procedure: The objective of this study was to examine the efficacy of CAS-024 and RITUXAN® (rituximab) as single agents in a model of established human tumor (DOHH2) xenografts in SCID mice.
Mice were monitored daily by visual inspection. […] Tumor volumes were calculated as described above. Tumor volumes on the last day that all mice were alive in each group were also expressed in terms of tumor volumes relative to day 0, using the formula: […]

Rec-1 cells [5] = assay: Rec-1 growth inhibition (ATP viable cell detection), combination index with chemotherapeutic agents; type: cell-based, human; settings: 96 hours
Procedure: Rec-1 cells, a CD37+ human B cell line established from a patient with mantle cell lymphoma, were tested for growth inhibition in response to crosslinked CAS-024 in the presence or absence of doxorubicin, vincristine, or fludarabine (see FIG. 7). CAS-024 was preincubated with anti-human IgG F(ab)′2 to crosslink the protein. Cells were cultured with medium alone or with medium containing various concentrations of the crosslinked CAS-024 protein, in the presence or absence of various concentrations of doxorubicin, vincristine, or fludarabine. Cultures were incubated for 96 hours and growth inhibition was assessed using an ATP viable cell detection system (i.e., viable cells quantified by ATP release).
A numerical value, assigned to each drug combination at predefined dose levels, enabled quantitative drug/drug interaction comparisons between different drug combinations. Results were expressed as combination indices (CI) vs. effect level, in which effect level represented percent inhibition of cell growth. The mean CI±SEM for each effect level was averaged over three experiments. A CI<1.0 was considered synergy, CI=1.0 additivity, and CI>1.0 antagonism.

Rec-1 cells [6] = assay: Rec-1 growth inhibition (ATPlite), combination index with bendamustine; type: cell-based, human; settings: crosslinked CAS024 combined with bendamustine; 96 hr
Procedure: (§1) The final volume in each well was 150 μL.

SU-DHL-6 cells = assay: SU-DHL-6 growth inhibition (ATPlite), combination index; type: cell-based, human
Procedure: as §1

[7] = tested on: DOHH2 human tumor xenograft; assay: Dose response in established subcutaneous DOHH2 xenograft model in SCID mice; settings: days 0, 4, 8
Procedure: The objective of this experiment was to examine the dose response to treatment with CAS-024 in a model of established subcutaneous human tumor (DOHH2) xenograft model in SCID mice.
On day 8 post-tumor inoculation, palpable tumors were apparent in a majority of mice. The tumor-bearing mice were sorted into four groups with equivalent mean tumor volumes (n=14 per group; 2 cages of 5 mice and 1 cage of 4 mice for each group). The day of the sort was defined as day 0. Tumor diameters were determined with a pair of calipers and tumor volumes were calculated using the formula: V=½[length×(width)^2].
Tumor-bearing groups of SCID mice were treated on days 0, 4, and 8 via IP injection of 0.2 mL of PBS containing 200 μg of huIgG (negative control) or 200, 100, 30, 10, or 3 μg of CAS-024. The two lowest dose solutions of CAS-024 were prepared on the day of injection to avoid the need to add a carrier protein to the most dilute solutions.
Dose solutions were prepared in similar volumes and the contents of the tubes were noted on removable labels. An investigator who was not treating or assessing the mice placed a color code on each tube and noted the code and identity of the tube contents in a laboratory notebook. Mice were monitored daily by visual inspection. Weights were determined weekly, and tumor diameters were determined at least 3 times per week (M, W, F) by an observer blinded (see above) to the treatment groups. Tumor volumes were calculated as described above. Mice were euthanized if their tumor volume reached more than 1500 mm^3 (or 1200 mm^3 on Fridays). Death was not an endpoint in the tumor protocols and, unless noted otherwise, “survival” of a mouse was determined by the time it was euthanized due to its tumor volume reaching the predetermined limits.
All statistical analyses were performed using GraphPad Prism software. Significant differences in mean tumor volumes and mean relative tumor volumes were determined using a one-way ANOVA for nonparametric data (Kruskal-Wallis test) with Dunn's multiple comparison post test. To examine differences between each of the CAS-024 treated groups and the huIgG group, all groups were compared. For comparisons between the CAS-024 groups only, the huIgG group was excluded. In addition, the high and middle dose (200, 100, and 30 μg) groups were analyzed as a one data set, and the middle and low dose (30, 10, and 3 μg) groups were analyzed as another data set. Significant differences in survival of mice over time were determined using Kaplan-Meier survival analysis with a log-rank test for comparing survival curves. Significant differences in the incidence of tumor-free mice were determined using Fisher's exact test. p values<0.05 were considered significant.

CD37 [8] = target: T1, CD37; assay: FMAT competition binding assay against labeled CAS-006 on Ramos cells; parameters: CD-37 found on Ramos cells (a B-lymphoblastoid cell line derived from a Burkitt lymphoma); endogenous in cells; host or cells: Ramos cells
Description: A competition assay was used to compare the binding affinity of different anti-CD37 specific small modular immunopharmaceutical (SMIP) molecules to CD-37 found on Ramos cells (a B-lymphoblastoid cell line derived from a Burkitt lymphoma). An SEC purified chimeric anti-CD37 SMIP molecule (CAS-006, SEQ ID NO:247) was labeled with the FMAT Blue® fluorescence dye (Applied Biosystems) and used as the standard to compete with purified unlabeled chimeric anti-CD37 SMIP molecule (positive control) and purified unlabeled humanized anti-CD37 SMIP test molecules. […] The plates were incubated at room temperature for 30 min and read on an 8200 Cellular Detection System (Applied Biosystems) gated for middle cell size and low signal.
A competition assay as described in Example 4 was used to compare the binding affinity of different mouse-human hybrid anti-CD37 SMIP molecules compared to CAS-024 binding to Ramos cells. An SEC purified chimeric anti-CD37 SMIP molecule (CAS-006, SEQ ID NO:247) was labeled with the FMAT Blue® fluorescence dye (Applied Biosystems) and used as the standard to compete with purified unlabeled chimeric anti-CD37 SMIP molecule (CAS-006, positive control) and purified unlabeled humanized anti-CD37 SMIP test molecules—-CAS-002 (SEQ ID NO:48), CAS-003 (SEQ ID NO:52), CAS-014 (SEQ ID NO:251), CAS-017 (SEQ ID NO:252), and CAS-024 (SEQ ID NO:253).

Cn1c(CCCC(=O)O)nc2cc(N(CCCl)CCCl)ccc21 [Bendamustine, 4-[5-[Bis(2-chloroethyl)amino]-1-methylbenzimidazol-2-yl]butanoic acid, reference compound]
Median Survival Time [1]: 17 days
clinical signs of toxicity [1]: scruffy coats and diarrhea

CAS-006: chimeric anti-CD37 SMIP protein (mVLmVH) with variable regions of mouse mAb G28-1, SEQ ID NO:247
blocking activity (inhibition of binding of FITC-conjugated anti-CD37) (CD37 [2]): highest level of blocking activity
combination effect with fludarabine on killing of CLL cells [3]: acts synergistically

G28-1 VH (M99F, Y102S)—VL (T25A) scFv (SSC-P) H WCH2 WCH3 [CAS-024]
Death (other than for Tumor Size Sacrifice) [4]: 1/15^f
Median Survival Time [4]: Undefined^d,e
mean tumor volume compared with human IgG treated group [4]: significantly lower than that of the human IgG treated group
combination index (CI) (Rec-1 cells [5]; crosslinked CAS-024 combined with doxorubicin): additive
combination index (CI) (Rec-1 cells [5]; crosslinked CAS-024 combined with fludarabine): < 1.0
combination index (CI) (Rec-1 cells [5]; crosslinked CAS-024 combined with vincristine): < 1.0
combination effect on target cell growth (CI) (Rec-1 cells [6]): synergistic inhibitory effects
combination effect on cell growth (CI) (SU-DHL-6 cells; CAS-024 combined with chlorambucil): did not result in synergistic inhibitory effects
combination effect on cell growth (CI) (SU-DHL-6 cells; crosslinked CAS024 combined with bendamustine, 96 hr): synergistically inhibited
Median Survival Time [1]: 17^b Days
clinical signs of toxicity [1]: No clinical signs of toxicity
Death (Not Due to Large Tumor Volume) ([7]; 3 μg per IP injection): 0/14
Median Survival Time ([7]; 3 μg per IP injection, cumulative 9 μg): 19 days
Death (Not Due to Large Tumor Volume) ([7]; 10 μg per IP injection): 0/14
Median Survival Time ([7]; 10 μg per IP injection, cumulative 30 μg): 28 days
Death (Not Due to Large Tumor Volume) ([7]; 30 μg per IP injection): 0/14
Median Survival Time ([7]; 30 μg per IP injection, cumulative 90 μg): 35 days
Death (Not Due to Large Tumor Volume) ([7]; 100 μg per IP injection): 1/14^h
Median Survival Time ([7]; 100 μg per IP injection, cumulative 300 μg): Undefined
Death (Not Due to Large Tumor Volume) ([7]; 200 μg per IP injection): 0/14
Median Survival Time ([7]; 200 μg per IP injection, cumulative 600 μg): Undefined^ef
effect on the growth of DOHH2 tumors ([7]; 3 to 200 μg per IP injection): dose-dependent inhibitory effect
greater affinity for CD37 than humanized VLVH anti-CD37 SMIP molecules with 16 amino acid linker (CD37 [8]; FIG. 3): ≤ 4 fold
binding affinity for CD37 compared with parent CAS-006 (CD37 [8]; competition with FMAT Blue labeled CAS-006): substantially the same affinity; also recorded: same binding affinity as CAS-006

rituximab [Rituxan ®, reference compound]
Death (other than for Tumor Size Sacrifice) [4]: 0/15
Median Survival Time [4]: 43 days
mean tumor volume compared with human IgG treated group [4]: significantly lower than that of the human IgG treated group
